Assay results taken from US8703797B2, “Condensed ring pyridine compounds as subtype-selective modulators of sphingosine-1-phosphate-2 (S1P2) receptors” (Allergan, Inc., priority 2009, dated 2014).

Columns and labels:
S1P1 = molecular target: T1, S1P1 (Homo sapiens, UniProt P21453); assay: FLIPR calcium assay, cells expressing S1P1 and a G-protein; type: cell-based
T1 construct: expressed in transfected cells
Procedure: (§1) After removal of excess dye by washing, the cells are placed in the FLIPR TETRA instrument. Baseline fluorescence readings are taken prior to addition the compound to be tested. Agonists will trigger the receptor to interact with the G-protein, leading to an increase in intracellular calcium. The increase in intracellular calcium causes an increase in the fluorescence of the cells, due to the presence of fluo-4. This fluorescence increase is recorded by the FLIPR TETRA. After the calcium transient signal has decreased towards baseline, the standard agonist sphingosine 1-phosphate is added. If the test compound is an antagonist, an initial calcium signal will not be generated and the antagonist will prevent the generation of a calcium signal from sphingosine 1-phosphate.

S1P2 [1] = molecular target: T2, S1P2 (Homo sapiens, UniProt O95136); assay: S1P2 values marked (33P S1P); type: binding; details: value marked (33P S1P)
T2 sequence (O95136 whole entry, species assumed): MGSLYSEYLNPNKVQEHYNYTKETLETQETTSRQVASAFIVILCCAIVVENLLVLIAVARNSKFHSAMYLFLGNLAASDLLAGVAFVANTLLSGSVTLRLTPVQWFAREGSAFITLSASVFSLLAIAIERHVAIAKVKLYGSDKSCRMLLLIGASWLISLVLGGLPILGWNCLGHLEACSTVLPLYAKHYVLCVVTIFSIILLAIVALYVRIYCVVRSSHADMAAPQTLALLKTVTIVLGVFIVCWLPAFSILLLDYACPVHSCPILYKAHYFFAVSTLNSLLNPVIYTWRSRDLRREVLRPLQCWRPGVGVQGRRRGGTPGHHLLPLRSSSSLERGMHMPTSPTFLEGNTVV

S1P3 = molecular target: T3, S1P3 (Homo sapiens, UniProt Q99500); assay: FLIPR calcium assay, cells expressing S1P3 and a G-protein; type: cell-based
T3 construct: expressed in transfected cells
T3 sequence (Q99500 whole entry, species assumed): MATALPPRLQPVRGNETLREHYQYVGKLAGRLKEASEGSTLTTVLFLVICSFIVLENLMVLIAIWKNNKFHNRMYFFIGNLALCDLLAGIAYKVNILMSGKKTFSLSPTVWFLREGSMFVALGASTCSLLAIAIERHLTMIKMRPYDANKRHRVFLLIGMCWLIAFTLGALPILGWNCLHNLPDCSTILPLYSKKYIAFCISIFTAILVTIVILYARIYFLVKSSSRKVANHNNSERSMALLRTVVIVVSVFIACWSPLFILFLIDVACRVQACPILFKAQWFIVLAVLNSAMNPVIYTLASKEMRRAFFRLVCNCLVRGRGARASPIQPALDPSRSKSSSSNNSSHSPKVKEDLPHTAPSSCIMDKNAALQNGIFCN
Procedure: as §1

S1P2 [2] = molecular target: T2, S1P2; assay: FLIPR calcium assay, cells expressing S1P2 and a G-protein; type: cell-based; details: for FLIPR (% Antagonism) S1P2: antagonism versus sphingosine 1-phosphate
Procedure: as §1

T1 sequence (P21453 whole entry, species assumed): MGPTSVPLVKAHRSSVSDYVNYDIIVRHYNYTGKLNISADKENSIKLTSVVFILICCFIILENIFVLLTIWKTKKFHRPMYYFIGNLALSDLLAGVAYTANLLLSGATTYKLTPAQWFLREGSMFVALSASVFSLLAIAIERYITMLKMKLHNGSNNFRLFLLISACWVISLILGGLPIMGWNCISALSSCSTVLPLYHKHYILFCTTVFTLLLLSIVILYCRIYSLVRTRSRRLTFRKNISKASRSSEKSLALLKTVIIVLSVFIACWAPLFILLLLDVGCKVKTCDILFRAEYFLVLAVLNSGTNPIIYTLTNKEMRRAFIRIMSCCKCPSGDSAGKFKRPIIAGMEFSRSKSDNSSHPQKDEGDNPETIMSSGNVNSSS

EC50 (S1P1)	EC50 (S1P2 [1])	EC50 (S1P3)	EC50 (S1P2 [2])	FLIPR (% Antagonism) S1P2 (S1P2 [2])	Compound
> 8300 nM	2.1 nM	> 8300 nM	24 nM	(99) %	CCCc1cc(NC(=O)NCc2cc(C(C)C)c3c(n2)c(C)nn3C)cc(Cl)n1 [Example 12, 1-(2-chloro-6-propylpyridin-4-yl)-3-((7-isopropyl-1,3-dimethyl-1H-pyrazolo[4,3-b]pyridin-5-yl)methyl)urea]
> 8300 nM	0.5 nM	> 8300 nM	–	–	CCOc1cc(NC(=O)NCc2cc(C(C)C)c3c(n2)c(C)nn3C)cc(Cl)n1 [Example 13, 1-(2-chloro-6-ethoxypyridin-4-yl)-3-((7-isopropyl-1,3-dimethyl-1H-pyrazolo[4,3-b]pyridin-5-yl)methyl)urea]
> 8300 nM	0.2 nM	> 8300 nM	–	–	CCCOc1cc(NC(=O)NNc2cc(C(C)C)c3c(n2)c(C)nn3C)cc(Cl)n1 [Example 15, N-(2-chloro-6-propoxypyridin-4-yl)-2-(7-isopropyl-1,3-dimethyl-1H-pyrazolo[4,3-b]pyridin-5-yl)hydrazinecarboxamide]
> 8300 nM	266 nM	> 8300 nM	–	–	CCOc1cc(NC(=O)NNc2cc(C(C)C)c3c(n2)c(C)nn3C)ccn1 [Example 18, N-(2-ethoxypyridin-4-yl)-2-(7-isopropyl-1,3-dimethyl-1H-pyrazolo[4,3-b]pyridin-5-yl)hydrazinecarboxamide]
> 8300 nM	40 nM	> 8300 nM	–	–	COc1cc(OC)c(NC(=O)NNc2cc(C(C)C)c3c(n2)c(C)nn3C)cc1Cl [Example 19, N-(5-chloro-2,4-dimethoxyphenyl)-2-(7-isopropyl-1,3-dimethyl-1H-pyrazolo[4,3-b]pyridin-5-yl)hydrazinecarboxamide]
> 8300 nM	196 nM	> 8300 nM	–	–	Cc1cc(NNC(=O)Nc2cc(Cl)cc(Cl)c2)nc2ncccc12 [Example 20, N-(3,5-dichlorophenyl)-2-(4-methyl-1,8-naphthyridin-2-yl)hydrazinecarboxamide]
> 8300 nM	81 nM	> 8300 nM	–	–	CC(C)c1cc(NNC(=O)Nc2cc(Cl)cc(Cl)c2)nc2ncccc12 [Example 21, N-(3,5-dichlorophenyl)-2-(4-isopropyl-1,8-naphthyridin-2-yl)hydrazinecarboxamide]
> 8300 nM	199 nM	> 8300 nM	–	–	Cc1ccc(C)c2c(C(C)C)cc(NNC(=O)Nc3cc(Cl)cc(Cl)c3)nc12 [Example 22, N-(3,5-dichlorophenyl)-2-(4-isopropyl-5,8-dimethylquinolin-2-yl)hydrazinecarboxamide]
> 8300 nM	188 nM	> 8300 nM	–	–	CC(C)c1cc(NNC(=O)Nc2cc(Cl)cc(Cl)c2)nc2ccccc12 [Example 23, N-(3,5-dichlorophenyl)-2-(4-isopropylquinolin-2-yl)hydrazinecarboxamide]
> 8300 nM	390 nM	> 8300 nM	–	–	Cc1cc(NNC(=O)Nc2cc(Cl)nc(Cl)c2)nc2c(C)cccc12 [Example 24, N-(2,6-dichloropyridin-4-yl)-2-(4,8-dimethylquinolin-2-yl)hydrazinecarboxamide]
> 8300 nM	451 nM	> 8300 nM	–	–	Cc1cc(NNC(=O)Nc2cc(Cl)cc(Cl)c2)nc2c(C)cccc12 [Example 25, N-(3,5-dichlorophenyl)-2-(4,8-dimethylquinolin-2-yl)hydrazinecarboxamide]
> 8300 nM	196 nM	> 8300 nM	–	–	Cc1cc(NNC(=O)Nc2cc(Cl)nc(Cl)c2)nc2ccccc12 [Example 26, N-(2,6-dichloropyridin-4-yl)-2-(4-methylquinolin-2-yl)hydrazinecarboxamide]
> 8300 nM	386 nM	> 8300 nM	–	–	Cc1ccc(C)c2c(C)cc(NNC(=O)Nc3cc(Cl)cc(Cl)c3)nc12 [Example 27, N-(3,5-dichlorophenyl)-2-(4,5,8-trimethylquinolin-2-yl)hydrazinecarboxamide]

The next lines start with the compound.

Compound	EC50 (S1P1)	EC50 (S1P2 [1])	EC50 (S1P3)	EC50 (S1P2 [2])	FLIPR (% Antagonism) S1P2 (S1P2 [2])
1-(2-chloro-6-propoxypyridin-4-yl)-3-((7-isopropyl-1,3-dimethyl-1H-pyrazolo[4,3-b]pyridin-5-yl)methyl)urea [Example 14]	> 8300 nM	0.5 nM	> 8300 nM	–	–
Cc1nn(C)c2c(C(C)C)cc(NNC(=O)Nc3cc(Cl)cc(Cl)c3)nc12 [Example 1, N-(3,5-dichlorophenyl)-2-(7-isopropyl-1,3-dimethyl-1H-pyrazolo[4,3-b]pyridin-5-yl)hydrazinecarboxamide]	> 8300 nM	2.9 nM	> 8300 nM	47 nM	(96) %
Cc1nn(C)c2c(C(C)C)cc(CNC(=O)Nc3cc(Cl)nc(Cl)c3)nc12 [Example 2, 1-(2,6-dichloropyridin-4-yl)-3-((7-isopropyl-1,3-dimethyl-1H-pyrazolo[4,3-b]pyridin-5-yl)methyl)urea]	> 8300 nM	23.8 nM	> 8300 nM	118 nM	(91) %
CCCCc1cc(NC(=O)NNc2cc(C(C)C)c3c(n2)c(C)nn3C)cc(Cl)n1 [Example 3, N-(2-butyl-6-chloropyridin-4-yl)-2-(7-isopropyl-1,3-dimethyl-1H-pyrazolo[4,3-b]pyridin-5-yl)hydrazinecarboxamide]	> 8300 nM	5.7 nM	> 8300 nM	8 nM	(99) %
CCOc1cc(NC(=O)NNc2cc(C(C)C)c3c(n2)c(C)nn3C)cc(Cl)n1 [Example 4, N-(2-chloro-6-ethoxypyridin-4-yl)-2-(7-isopropyl-1,3-dimethyl-1H-pyrazolo[4,3-b]pyridin-5-yl)hydrazinecarboxamide]	> 8300 nM	1.5 nM	> 8300 nM	–	–
Cc1nn(C)c2c(C)cc(CNC(=O)Nc3cc(Cl)cc(Cl)c3)nc12 [Example 5, 1-(3,5-dichlorophenyl)-3-((1,3,7-trimethyl-1H-pyrazolo[4,3-b]pyridin-5-yl)methyl)urea]	> 8300 nM	–	> 8300 nM	135 nM	(82) %
Cc1nn(C)c2c(C(C)C)cc(NNC(=O)Nc3cc(Cl)nc(Cl)c3)nc12 [Example 6, N-(2,6-dichloropyridin-4-yl)-2-(7-isopropyl-1,3-dimethyl-1H-pyrazolo[4,3-b]pyridin-5-yl)hydrazinecarboxamide]	> 8300 nM	2.2 nM	> 8300 nM	11 nM	(95) %
Cc1nn(C)c2c(C(C)C)cc(NNC(=O)Nc3cc(C(F)(F)F)cc(C(F)(F)F)c3)nc12 [Example 7, N-(3,5-bis(trifluoromethyl)phenyl)-2-(7-isopropyl-1,3-dimethyl-1H-pyrazolo[4,3-b]pyridin-5-yl)hydrazinecarboxamide]	> 8300 nM	–	> 8300 nM	196 nM	(98) %
Cc1nn(C)c2c(C(C)C)cc(CNC(=O)Nc3cc(Cl)cc(Cl)c3)nc12 [Example 9]	> 8300 nM	26.4 nM	> 8300 nM	149 nM	(52) %
COc1cc(NC(=O)NCc2cc(C(C)C)c3c(n2)c(C)nn3C)cc(Cl)n1 [Example 10, 1-(2-chloro-6-methoxypyridin-4-yl)-3-((7-isopropyl-1,3-dimethyl-1H-pyrazolo[4,3-b]pyridin-5-yl)methyl)urea]	> 8300 nM	9.9 nM	> 8300 nM	58 nM	(98) %
CCCc1cc(NC(=O)NNc2cc(C(C)C)c3c(n2)c(C)nn3C)cc(Cl)n1 [Example 11, N-(2-chloro-6-propylpyridin-4-yl)-2-(7-isopropyl-1,3-dimethyl-1H-pyrazolo[4,3-b]pyridin-5-yl)hydrazinecarboxamide]	> 8300 nM	5 nM	> 8300 nM	9 nM	(98) %
CCCCOc1cc(NC(=O)NNc2cc(C(C)C)c3c(n2)c(C)nn3C)cc(Cl)n1 [Example 16, N-(2-butoxy-6-chloropyridin-4-yl)-2-(7-isopropyl-1,3-dimethyl-1H-pyrazolo[4,3-b]pyridin-5-yl)hydrazinecarboxamide]	> 8300 nM	0.1 nM	> 8300 nM	–	–
CCCCOc1cc(NC(=O)NCc2cc(C(C)C)c3c(n2)c(C)nn3C)cc(Cl)n1 [Example 17, 1-(2-butoxy-6-chloropyridin-4-yl)-3-((7-isopropyl-1,3-dimethyl-1H-pyrazolo[4,3-b]pyridin-5-yl)methyl)urea]	> 8300 nM	0.1 nM	> 8300 nM	–	–
